Laboratory results reported in ChEMBL document CHEMBL3639166, “Heteroaryloxyheterocyclyl compounds as PDE10 inhibitors” (2013).

Target: T1, cAMP and cAMP-inhibited cGMP 3',5'-cyclic phosphodiesterase 10A (Rattus norvegicus, UniProt Q9QYJ6)
T1 sequence (Q9QYJ6 whole entry): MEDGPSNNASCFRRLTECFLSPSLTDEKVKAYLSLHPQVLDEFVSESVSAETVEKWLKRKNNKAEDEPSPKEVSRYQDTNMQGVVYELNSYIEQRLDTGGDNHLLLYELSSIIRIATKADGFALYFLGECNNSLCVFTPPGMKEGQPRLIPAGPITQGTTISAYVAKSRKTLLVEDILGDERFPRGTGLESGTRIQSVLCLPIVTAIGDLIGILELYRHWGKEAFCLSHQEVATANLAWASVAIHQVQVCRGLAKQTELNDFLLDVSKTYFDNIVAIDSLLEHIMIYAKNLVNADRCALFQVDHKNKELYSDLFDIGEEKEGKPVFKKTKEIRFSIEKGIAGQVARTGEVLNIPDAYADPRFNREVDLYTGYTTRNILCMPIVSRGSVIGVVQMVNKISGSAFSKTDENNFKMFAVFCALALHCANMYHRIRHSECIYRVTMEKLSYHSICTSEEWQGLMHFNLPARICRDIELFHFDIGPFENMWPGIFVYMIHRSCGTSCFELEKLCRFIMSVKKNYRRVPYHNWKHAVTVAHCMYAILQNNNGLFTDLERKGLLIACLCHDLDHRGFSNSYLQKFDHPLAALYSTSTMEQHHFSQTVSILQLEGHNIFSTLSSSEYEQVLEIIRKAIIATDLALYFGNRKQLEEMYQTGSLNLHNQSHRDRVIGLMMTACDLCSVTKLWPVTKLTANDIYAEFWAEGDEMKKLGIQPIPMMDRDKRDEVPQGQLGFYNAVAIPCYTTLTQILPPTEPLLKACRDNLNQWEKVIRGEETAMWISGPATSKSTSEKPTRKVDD
Assay: Enzyme Inhibition Assay: Enzyme activity: An IMAP TR-FRET assay was used to analyze the enzyme activity (Molecular Devices Corp., Sunnyvale, Calif).

Row | IC50 [nM] | SMILES
1 | 884 | O=C(c1nc2ccccc2[nH]1)N1CC(Oc2nccnc2C2CCOCC2)C1
2 | 116 | O=C(c1nc2ccccc2[nH]1)N1CCC(Oc2ncccc2C2CCOCC2)CC1
3 | 8340 | CC(=O)N1CCCC(c2cccnc2OC2CN(C(=O)c3ccc(C)nc3)C2)C1 (configuration not stated)
4 | 139 | CC(=O)N1CCC(c2nccnc2OC2CN(C(=O)c3ccc[nH]3)C2)CC1
5 | 12300 | O=C(c1nc2ccccc2[nH]1)N1CC(Oc2cnccn2)C1
6 | 786 | O=C(c1nc2ccccc2[nH]1)N1CC(Oc2nc3ccccc3nc2C2CCOCC2)C1
7 | 994 | O=C(c1ccc2ccccc2n1)N1CCC(Oc2nccnc2C2CCOCC2)CC1
8 | 1230 | Cc1cc(-c2cccnc2OC2CCN(C(=O)c3ccc4ccccc4n3)CC2)ccn1
9 | 2130 | Cc1cc(-c2cccnc2OC2CCN(C(=O)c3nccc4ccccc34)CC2)ccn1
10 | 11100 | O=C(c1nccc2ccccc12)N1CCC(Oc2ncccc2N2CCOCC2)CC1
11 | 1820 | O=C(c1nc2ccccc2[nH]1)N1CC[C@@H](Oc2ncccc2C2CCOCC2)C1
12 | 4960 | c1ccc2cc(N3CC(Oc4nccnc4C4CCOCC4)C3)ncc2c1
13 | 4410 | c1ccc2c(N3CC(Oc4nccnc4C4CCOCC4)C3)nccc2c1
14 | 331 | c1ccc2nc(N3CC(Oc4nccnc4C4CCOCC4)C3)ccc2c1
15 | 1330 | Cc1ccnc(N2CCC(Oc3nccnc3C3CCOCC3)CC2)c1
16 | 236 | Cc1ccnc(N2CCC(Oc3ncccc3C3CCOCC3)CC2)c1
17 | 1670 | Cc1cccc(N2CCC(Oc3ncccc3C3CCOCC3)CC2)n1
18 | 2810 | c1ccc2c(N3CCC(Oc4nccnc4C4CCOCC4)CC3)nccc2c1
19 | 235 | c1ccc2cc(N3CCC(Oc4nccnc4C4CCOCC4)CC3)ncc2c1
20 | 229 | c1ccc2[nH]c(N3CCC(Oc4nccnc4C4CCOCC4)CC3)nc2c1
21 | 1810 | c1cnc(OC2CCN(c3nccc4ccccc34)CC2)c(C2CCOCC2)c1
22 | 199 | c1cnc(OC2CCN(c3nc4ccccc4[nH]3)CC2)c(C2CCOCC2)c1
23 | 340 | c1cnc(O[C@H]2CCN(c3ccc4ccccc4n3)C2)c(C2CCOCC2)c1
24 | 2970 | c1cnc(O[C@H]2CCN(c3cc4ccccc4cn3)C2)c(C2CCOCC2)c1
25 | 2470 | c1cnc(O[C@H]2CCN(c3nc4ccccc4[nH]3)C2)c(C2CCOCC2)c1
26 | 384 | c1cnc(O[C@@H]2CCN(c3ccc4ccccc4n3)C2)c(C2CCOCC2)c1
27 | 1830 | c1cnc(O[C@@H]2CCN(c3cc4ccccc4cn3)C2)c(C2CCOCC2)c1
28 | 3590 | c1cnc(O[C@@H]2CCN(c3nc4ccccc4[nH]3)C2)c(C2CCOCC2)c1

Row | IC50 [nM] | SMILES
29 | 1360 | c1ccc2cc(N3CC[C@H](Oc4nccnc4C4CCOCC4)C3)ncc2c1
30 | 346 | CC(=O)N1CC=C(c2cccnc2OC2CN(c3nc4ccccc4s3)C2)CC1
31 | 690 | CC(=O)N1CCC(c2nccnc2OC2CN(c3nc4ccccc4[nH]3)C2)CC1
32 | 1170 | OCc1ccc(N2CCC(Oc3ncccc3C3CCOCC3)CC2)nc1
33 | 1480 | O=Cc1ccc(N2CCC(Oc3ncccc3C3CCOCC3)CC2)nc1
34 | 2960 | Fc1ccc(N2CCC(Oc3ncccc3C3CCOCC3)CC2)nc1
35 | 2200 | FC(F)(F)c1ccc(N2CCC(Oc3ncccc3C3CCOCC3)CC2)nc1
36 | 266 | Cc1ccc2ccc(N3CCC(Oc4ncccc4C4CCOCC4)CC3)nc2c1
37 | 198 | COC(=O)c1ccc(N2CCC(Oc3ncccc3C3CCOCC3)CC2)nc1
38 | 125 | Cc1cc(N2CCC(Oc3nccnc3C3CCOCC3)CC2)nc2ccccc12
39 | 276 | Cc1ccc2nc(N3CCC(Oc4nccnc4C4CCOCC4)CC3)ccc2c1
40 | 472 | Cc1ccc2nc(N3CCC(Oc4ncccc4C4CCOCC4)CC3)ccc2c1
41 | 2850 | CC(=O)N1CCC(c2nccnc2OC2CCN(c3ccccn3)CC2)CC1
42 | 1050 | CC(=O)N1CCC(c2nccnc2OC2CCN(c3cccc(C)n3)CC2)CC1
43 | 1620 | CC(=O)N1CCC(c2nccnc2OC2CCN(c3ccc(C)cn3)CC2)CC1
44 | 997 | CC(=O)N1CCC(c2nccnc2OC2CCN(c3cc(C)ccn3)CC2)CC1
45 | 235 | CC(=O)N1CCC(c2nccnc2OC2CCN(c3cccc(Cl)n3)CC2)CC1
46 | 821 | CC(=O)N1CCC(c2nccnc2OC2CCN(c3ccc(Cl)cn3)CC2)CC1
47 | 96 | CC(=O)N1CCC(c2nccnc2OC2CCN(c3cc(Cl)ccn3)CC2)CC1
48 | 1080 | CC(=O)N1CCC(c2cccnc2OC2CCN(c3ccccn3)CC2)CC1
49 | 1180 | CC(=O)N1CCC(c2cccnc2OC2CCN(c3cccc(C)n3)CC2)CC1
50 | 1770 | CC(=O)N1CCC(c2cccnc2OC2CCN(c3cc(C)ccn3)CC2)CC1
51 | 1490 | CC(=O)N1CCC(c2cccnc2OC2CCN(c3ncccc3C)CC2)CC1
52 | 558 | CC(=O)N1CCC(c2cccnc2OC2CCN(c3cccc(Cl)n3)CC2)CC1
53 | 3580 | CC(=O)N1CCC(c2cccnc2OC2CCN(c3ncccc3Cl)CC2)CC1
54 | 51.1 | O=C(OCc1ccccc1)N1CCC(c2nc3ccccc3nc2OC2CN(c3ccc4ccccc4n3)C2)CC1
55 | 115 | CC(C)(C)OC(=O)N1CCC(c2nc3ccccc3nc2OC2CN(c3ccc4ccccc4n3)C2)CC1

The next lines start with the compound.

Row | SMILES | IC50 [nM]
56 | CC(=O)N1CCC(c2nccnc2OC2CN(c3ccc4ccccc4n3)C2)CC1 | 8.39
57 | O=C(c1ccc2ccccc2n1)N1CCC(Oc2nccnc2N2CCOCC2)CC1 | 1080
58 | CC(=O)N1CCC(c2cccnc2OC2CN(C(=O)c3nc4ccccc4[nH]3)C2)CC1 | 102
59 | CC(=O)N1CC=C(c2nccnc2OC2CN(C(=O)c3ccc(C)cn3)C2)CC1 | 1030
60 | CC(=O)N1CCCC(c2cccnc2OC2CN(C(=O)CC(C)(C)C)C2)C1 (configuration not stated) | 41800
61 | O=C(c1ccc2ccccc2n1)N1CCC(Oc2ncccc2C2CCOCC2)CC1 | 809
62 | O=C(c1nccc2ccccc12)N1CCC(Oc2nccnc2C2CCOCC2)CC1 | 7320
63 | Cc1cc(-c2nccnc2OC2CCN(C(=O)c3ccc4ccccc4n3)CC2)ccn1 | 2660
64 | Cc1cc(-c2nccnc2OC2CCN(C(=O)c3nccc4ccccc34)CC2)ccn1 | 3590
65 | O=C(c1nccc2ccccc12)N1CCC(Oc2nccnc2N2CCOCC2)CC1 | 5400
66 | O=C(c1nc2ccccc2[nH]1)N1CC[C@H](Oc2ncccc2C2CCOCC2)C1 | 409
67 | c1cnc(OC2CN(c3ccc4ccccc4n3)C2)c(C2CCOCC2)c1 | 1800
68 | c1ccc(N2CCC(Oc3nccnc3C3CCOCC3)CC2)nc1 | 2390
69 | Cc1cccc(N2CCC(Oc3nccnc3C3CCOCC3)CC2)n1 | 1440
70 | Cc1cccnc1N1CCC(Oc2ncccc2C2CCOCC2)CC1 | 568
71 | Cc1ccc(N2CCC(Oc3ncccc3C3CCOCC3)CC2)nc1 | 262
72 | c1ccc2nc(N3CCC(Oc4nccnc4C4CCOCC4)CC3)ccc2c1 | 69.3
73 | c1cnc(OC2CCN(c3cc4ccccc4cn3)CC2)c(C2CCOCC2)c1 | 353
74 | c1cnc(O[C@H]2CCN(c3nccc4ccccc34)C2)c(C2CCOCC2)c1 | 730
75 | c1cnc(O[C@@H]2CCN(c3nccc4ccccc34)C2)c(C2CCOCC2)c1 | 981
76 | c1ccc2nc(N3CC[C@H](Oc4nccnc4C4CCOCC4)C3)ccc2c1 | 447

Row | SMILES | IC50 [nM]
77 | c1ccc2c(N3CC[C@H](Oc4nccnc4C4CCOCC4)C3)nccc2c1 | 819
78 | c1ccc2nc(N3CC[C@@H](Oc4nccnc4C4CCOCC4)C3)ccc2c1 | 109
79 | c1ccc2c(N3CC[C@@H](Oc4nccnc4C4CCOCC4)C3)nccc2c1 | 4430
80 | c1ccc2[nH]c(N3CC[C@@H](Oc4nccnc4C4CCOCC4)C3)nc2c1 | 306
81 | CC(=O)N1CC=C(c2nccnc2OC2CN(c3nc4ccccc4s3)C2)CC1 | 63.1
82 | O=[N+]([O-])c1ccc(N2CCC(Oc3ncccc3C3CCOCC3)CC2)nc1 | 1400
83 | Nc1ccc(N2CCC(Oc3ncccc3C3CCOCC3)CC2)nc1 | 1700
84 | Clc1ccc(N2CCC(Oc3ncccc3C3CCOCC3)CC2)nc1 | 1410
85 | Brc1ccc(N2CCC(Oc3ncccc3C3CCOCC3)CC2)nc1 | 138
86 | N#Cc1ccc(N2CCC(Oc3ncccc3C3CCOCC3)CC2)nc1 | 828
87 | CC(=O)c1ccc(N2CCC(Oc3ncccc3C3CCOCC3)CC2)nc1 | 384
88 | Cc1ccc2ccc(N3CCC(Oc4nccnc4C4CCOCC4)CC3)nc2c1 | 515
89 | Cc1cccc2ccc(N3CCC(Oc4nccnc4C4CCOCC4)CC3)nc12 | 7840
90 | c1ccc2[nH]c(N3CC[C@H](Oc4nccnc4C4CCOCC4)C3)nc2c1 | 3930
91 | Cc1cc(N2CCC(Oc3ncccc3C3CCOCC3)CC2)nc2ccccc12 | 101
92 | Brc1cccnc1OC1CN(c2ccncn2)C1 | 57700
93 | Brc1cccnc1OC1CN(c2cccnn2)C1 | 25.3
94 | CC(=O)N1CCC(c2nccnc2OC2CCN(c3ncccc3C)CC2)CC1 | 3010
95 | CC(=O)N1CCC(c2nccnc2OC2CCN(c3ncccc3Cl)CC2)CC1 | 1440
96 | CC(=O)N1CCC(c2cccnc2OC2CCN(c3ccc(C)cn3)CC2)CC1 | 1170
97 | CC(=O)N1CCC(c2cccnc2OC2CCN(c3ccc(Cl)cn3)CC2)CC1 | 1200
